# Measured values: publication PMC9939793 (Infection and Drug Resistance, 2023)
# How the values were obtained:
# [1] = molecular target: neuraminidase of A(H1N1)pdm09-S247N isolate (A/NRW/142/2019) (Influenza A virus, UniProt A0A0X9QTS2, S247N); format: biochemical
# [2] = test system: A(H3N2) PA-I38M isolate (A/Berlin/9/2020); format: cell-based, influenza A(H3N2)
Structure (SMILES),IC50 increase [1],reduction of antiviral activity [2]
"CCC(CC)[C@H](NC(C)=O)[C@@H]1[C@H](O)[C@@H](C(=O)O)C[C@H]1N=C(N)N [Peramivir, peramivir]",up to 7 fold,–
"CC(=O)N[C@H]1[C@H]([C@H](O)[C@H](O)CO)OC(C(=O)O)=C[C@@H]1N=C(N)N [Zanamivir, zanamivir]",up to 7 fold,–
"COC(=O)OCOc1c2n(ccc1=O)N([C@@H]1c3ccccc3SCc3c1ccc(F)c3F)[C@@H]1COCCN1C2=O [baloxavir marboxil, Baloxavir marboxil]",–,up to 5 fold
